Reference: patent US20100331305A1, “OXO-HETEROCYCLE FUSED PYRIMIDINE COMPOUNDS, COMPOSITIONS AND METHODS OF USE” (Genentech, Inc., priority 2009, published 2010)

Assays:
[1] = biological target: mTOR enzyme (mTOR(1360-2549)+GBL) (Homo sapiens, UniProt P42345); test: In vitro mTOR kinase assay (TR-FRET); assay type: biochemical; details: 0.25 nM mTOR+GBL, 8 uM ATP; values tied to compounds by order of Table 1; 'x or y' = two alternative values for separated diastereomers of unassigned stereochemistry; read-out: activity level (Ki) in the mTOR kinase assay
Source text: a. In Vitro mTOR Kinase Assay
The reaction is stopped by an addition of a Terbium-labeled phospho-specific antibody, e.g., Tb-labeled anti-p4E-BP1 T37/T46, (Invitrogen, product #PR8835A), EDTA, and TR-FRET buffer solution (Invitrogen, Product #PR3756B). Product formation is detected by way of time-resolved fluorescence resonance energy transfer (TR-FRET), which occurs when the phosphorylated substrate and labeled antibody are in close proximity due to phospho-specific binding. Enzymatic activity is measured as an increase in TR-FRET signal using a Perkin Elmer Envision plate reader.
Compound activity is tested in 10 point dose curves starting at the highest final concentration of 10 uM. They are serially diluted in 100% DMSO prior to further dilution with assay buffer. […] 8 μL of solution containing 2 nM Tb-anti-p4E-BP1 antibody & 10 mM EDTA diluted TR-FRET buffer is then added and incubated for 30 minutes to stop the reaction. The plate is scanned with the Envision plate reader. Ki values are calculated in Assay Explorer using the Morrison ATP-competitive tight binding equation for Ki apparent determination.

PC3 cells = test: In vitro cell proliferation assay; assay type: cell-based, human; details: Homo sapiens, PC-3, with PC3 cells; values tied to compounds by order of Table 1
Procedure: c. In Vitro Cell Proliferation Assay Efficacy of Formula I compounds were measured by a cell proliferation assay employing the following protocol: 1. An aliquot of 20 μl of cell culture containing about 10^3 cells (PC3 or MDAMB361.1) in medium was deposited in each well of a 384-well, opaque-walled plate. 2. Control wells were prepared containing medium and without cells; Cells were allowed to settle overnight. 3. The compound was added to the experimental wells and incubated for 3 days. 4. The plates were equilibrated to room temperature for approximately 30 minutes. 5. A volume of CellTiter-Glo Reagent equal to the volume of cell culture medium present in each well was added. […] The contents were mixed for 2 minutes on an orbital shaker to induce cell lysis. 7. The plate was incubated at room temperature for 20 minutes to stabilize the luminescence signal. 8. Luminescence was recorded and reported in graphs as RLU=relative luminescence units. Alternatively, cells were seeded at optimal density in a 96 well plate and incubated for 4 days in the presence of test compound. Alamar BlueTM was subsequently added to the assay medium, and cells were incubated for 6 h before reading at 544 nm excitation, 590 nm emission. EC50 values were calculated using a sigmoidal dose response curve fit.

Sequence of mTOR enzyme (mTOR(1360-2549)+GBL) (P42345 1360-2549, species assumed): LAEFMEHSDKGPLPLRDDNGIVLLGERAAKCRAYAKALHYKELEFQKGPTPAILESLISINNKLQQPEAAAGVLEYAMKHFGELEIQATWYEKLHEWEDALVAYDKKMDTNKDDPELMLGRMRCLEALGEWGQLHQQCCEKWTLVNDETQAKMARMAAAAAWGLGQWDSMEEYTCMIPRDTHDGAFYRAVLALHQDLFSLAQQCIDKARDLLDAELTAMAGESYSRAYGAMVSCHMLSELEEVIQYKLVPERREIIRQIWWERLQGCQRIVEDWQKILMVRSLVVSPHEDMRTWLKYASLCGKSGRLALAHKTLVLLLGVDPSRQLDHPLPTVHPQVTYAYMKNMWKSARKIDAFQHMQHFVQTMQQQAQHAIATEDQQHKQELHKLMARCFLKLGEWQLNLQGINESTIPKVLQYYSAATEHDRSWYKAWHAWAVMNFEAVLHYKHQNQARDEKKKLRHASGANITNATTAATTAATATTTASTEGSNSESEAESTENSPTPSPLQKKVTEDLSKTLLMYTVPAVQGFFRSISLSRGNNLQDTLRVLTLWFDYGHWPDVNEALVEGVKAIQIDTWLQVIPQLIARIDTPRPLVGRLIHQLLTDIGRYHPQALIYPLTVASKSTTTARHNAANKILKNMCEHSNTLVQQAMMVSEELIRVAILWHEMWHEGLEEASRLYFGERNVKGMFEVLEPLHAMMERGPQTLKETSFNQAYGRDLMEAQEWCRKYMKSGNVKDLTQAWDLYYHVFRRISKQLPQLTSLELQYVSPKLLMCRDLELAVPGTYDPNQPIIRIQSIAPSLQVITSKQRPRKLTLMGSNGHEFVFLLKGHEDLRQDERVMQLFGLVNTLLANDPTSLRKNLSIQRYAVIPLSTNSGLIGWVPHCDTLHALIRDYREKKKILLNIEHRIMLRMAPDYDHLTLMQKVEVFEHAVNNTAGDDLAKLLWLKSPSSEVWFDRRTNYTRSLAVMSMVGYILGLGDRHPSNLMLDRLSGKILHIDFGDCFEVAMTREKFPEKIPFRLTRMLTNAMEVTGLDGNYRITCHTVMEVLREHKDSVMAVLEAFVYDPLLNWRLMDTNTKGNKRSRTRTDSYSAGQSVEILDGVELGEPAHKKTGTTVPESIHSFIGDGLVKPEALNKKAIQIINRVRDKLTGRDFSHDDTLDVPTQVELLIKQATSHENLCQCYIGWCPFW
Sequence of mTOR enzyme (mTOR(1360-2549)+GBL) (Q9BVC4 whole entry partner, species assumed): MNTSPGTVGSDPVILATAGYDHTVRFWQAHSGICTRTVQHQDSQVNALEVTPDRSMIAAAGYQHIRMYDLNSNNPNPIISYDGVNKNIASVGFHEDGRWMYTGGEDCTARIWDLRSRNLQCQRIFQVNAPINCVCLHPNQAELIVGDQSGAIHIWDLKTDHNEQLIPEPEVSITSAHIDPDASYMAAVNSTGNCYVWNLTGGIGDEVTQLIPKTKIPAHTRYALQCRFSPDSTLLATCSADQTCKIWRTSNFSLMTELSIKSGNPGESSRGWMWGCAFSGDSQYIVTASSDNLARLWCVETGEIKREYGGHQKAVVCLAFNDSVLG

Row | Structure (SMILES) | Ki [1] | EC50 (PC3 cells)
1 | Cn1ccc(NC(=O)Nc2ccc(-c3nc4c(c(N5CCOCC5)n3)CCC3(CC3)O4)cc2)n1 [Example 44, 1-(1-methyl-1H-pyrazol-3-yl)-3-(4-(4′-morpholino-5′,6′-dihydrospiro[cyclopropane-1,7′-pyrano[2,3-d]pyrimidine]-2′-yl)phenyl)urea] | 0.002 µM | 0.329 µM
2 | CCNC(=O)Nc1ccc(-c2nc(N3CCOC[C@@H]3C)c3c(n2)[C@@](C)(CC(C)O)OC3)cc1 (stereo partly drawn) [1-ethyl-3-(4-((7R)-7-(2-hydroxypropyl)-7-methyl-4-((S)-3-methylmorpholino)-5,7-dihydrofuro[3,4-d]pyrimidin-2-yl)phenyl)urea] | 0.002 µM | 0.039 µM
3 | CCNC(=O)Nc1ccc(-c2nc3c(c(N4[C@@H]5CC[C@H]4COC5)n2)COC3)cc1 [Example 98, 1-(4-(4-((1R,5S)-3-oxa-8-azabicyclo[3.2.1]octan-8-yl)-5,7-dihydrofuro[3,4-d]pyrimidin-2-yl)phenyl)-3-ethylurea] | 0.008 µM | 0.331 µM
4 | CCNC(=O)Nc1ccc(-c2nc3c(c(N4[C@@H]5CC[C@H]4COC5)n2)CCCO3)cc1 [1-(4-(4-((1R,5S)-3-oxa-8-azabicyclo[3.2.1]octan-8-yl)-6,7-dihydro-5H-pyrano[2,3-d]pyrimidin-2-yl)phenyl)-3-ethylurea] | 0.001 µM | 0.108 µM
5 | CCNC(=O)Nc1ccc(-c2nc(N3CCOC[C@@H]3C)c3c(n2)[C@](C)(CC(C)O)OC3)cc1 (stereo partly drawn) [1-ethyl-3-(4-((7S)-7-(2-hydroxypropyl)-7-methyl-4-((S)-3-methylmorpholino)-5,7-dihydrofuro[3,4-d]pyrimidin-2-yl)phenyl)urea] | 0.002 µM | 0.025 µM
6 | CCNC(=O)Nc1ccc(-c2nc3c(c(N4CCOC[C@@H]4C)n2)COC(C)(C)C3)cc1 [(S)-1-(4-(7,7-dimethyl-4-(3-methylmorpholino)-7,8-dihydro-5H-pyrano[4,3-d]pyrimidin-2-yl)phenyl)-3-ethylurea] | 0.003 µM | 0.05 µM
7 | C[C@H]1COCCN1c1nc(-c2ccc(NC(=O)NCCC#N)cc2)nc2c1CCC1(CC1)O2 [Example 66, (S)-1-(2-cyanoethyl)-3-(4-(4′-(3-methylmorpholino)-5′,6′-dihydrospiro[cyclopropane-1,7′-pyrano[2,3-d]pyrimidine]-2′-yl)phenyl)urea] | 0.002 µM | 0.099 µM
8 | Nc1ccc(-c2nc3c(c(N4[C@@H]5CC[C@H]4COC5)n2)CCCO3)cn1 [Example 132, 5-(4-((1R,5S)-3-oxa-8-azabicyclo[3.2.1]octan-8-yl)-6,7-dihydro-5H-pyrano[2,3-d]pyrimidin-2-yl)pyridin-2-amine] | 0.032 µM | 0.585 µM
9 | C[C@H]1COCCN1c1nc(-c2ccc(NC(=O)NCCS(C)(=O)=O)cc2)nc2c1CCC1(CC1)O2 [Example 57, (S)-1-(4-(4′-(3-methylmorpholino)-5′,6′-dihydrospiro[cyclopropane-1,7′-pyrano[2,3-d]pyrimidine]-2′-yl)phenyl)-3-(2-(methylsulfonyl)ethyl)urea] | 0.005 µM | 0.595 µM
10 | CC[C@H]1COCCN1c1nc(-c2ccc(Nc3nccc(=O)[nH]3)cc2)nc2c1COCC2 [Example 4, (S)-2-(4-(4-(3-ethylmorpholino)-7,8-dihydro-5H-pyrano[4,3-d]pyrimidin-2-yl)phenylamino)pyrimidin-4(3H)-one] | 0.001 µM | 0.03 µM
11 | O=C(Nc1ccc(-c2nc3c(c(N4[C@@H]5CC[C@H]4COC5)n2)CCCO3)cc1)NC1COC1 [1-(4-(4-((1R,5S)-3-oxa-8-azabicyclo[3.2.1]octan-8-yl)-6,7-dihydro-5H-pyrano[2,3-d]pyrimidin-2-yl)phenyl)-3-(oxetan-3-yl)urea] | 0.005 µM | 0.238 µM
12 | C=CC[C@@]1(C)OCc2c(N3CCOC[C@@H]3C)nc(-c3ccc(NC(=O)NCC)cc3)nc21 [Example 85 ek^2] | 0.002 µM | 0.066 µM
13 | CONC(=O)Nc1ccc(-c2nc3c(c(N4CCOC[C@@H]4C)n2)CCC2(CC2)O3)cc1 [Example 67, (S)-1-methoxy-3-(4-(4′-(3-methylmorpholino)-5′,6′-dihydrospiro[cyclopropane-1,7′-pyrano[2,3-d]pyrimidine]-2′-yl)phenyl)urea] | 0.01 µM | 0.853 µM
14 | CC1(C)OCc2c(N3CCOCC3)nc(-c3ccc4onc(N)c4c3)nc21 [Example 117, 5-(7,7-dimethyl-4-morpholino-5,7-dihydrofuro[3,4-d]pyrimidin-2-yl)benzo[d]isoxazol-3-amine] | 0.567 µM | 1.2 µM
15 | O=C(Nc1ccc(-c2nc3c(c(N4CCOCC4)n2)CCC2(CC2)O3)cc1)NC1COC1 [Example 43, 1-(4-(4′-morpholino-5′,6′-dihydrospiro[cyclopropane-1,7′-pyrano[2,3-d]pyrimidine]-2′-yl)phenyl)-3-(oxetan-3-yl)urea] | 0.006 µM | 0.392 µM
16 | CCNC(=O)Nc1ccc(-c2nc(N3CCOC[C@@H]3C)c3c(n2)C(C)(CCn2ccnc2C)OC3)cc1 (single isomer, unassigned) [Example 81 et (S)] | 0.007 µM | 0.402 µM
17 | CCNC(=O)Nc1ccc(-c2nc3c(c(N4C[C@@H]5C[C@H]4CO5)n2)CCCO3)cc1 [Example 3, 1-(4-(4-((1S,4S)-2-oxa-5-azabicyclo[2.2.1]heptan-5-yl)-6,7-dihydro-5H-pyrano[2,3-d]pyrimidin-2-yl)phenyl)-3-ethylurea] | 0.022 µM | 1.2 µM
18 | CCC[C@]1(C)OCc2c(N3C[C@H]4CC[C@@H](C3)O4)nc(-c3ccc(NC(=O)NCC)cc3)nc21 [Example 74 ej (S), 1-(4-((S)-4-((1R,5S)-8-oxa-3-azabicyclo[3.2.1]octan-3-yl)-7-methyl-7-propyl-5,7-dihydrofuro[3,4-d]pyrimidin-2-yl)phenyl)-3-ethylurea] |  | 0.051 µM
19 | CCNC(=O)Nc1ccc(-c2nc(N3CCOC[C@@H]3C)c3c(n2)[C@@](C)(CCCO)OC3)cc1 [Example 75 el (R), 1-ethyl-3-(4-((R)-7-(3-hydroxypropyl)-7-methyl-4-((S)-3-methylmorpholino)-5,7-dihydrofuro[3,4-d]pyrimidin-2-yl)phenyl)urea] |  | 0.322 µM
20 | CCNC(=O)Nc1ccc(-c2nc(N3CCOCC3C)c3c(n2)C(C)(CCOc2ccccc2)OC3)cc1 (centres unmarked) [Example 91 ft^1, 1-ethyl-3-(4-(7-methyl-4-(3-methylmorpholino)-7-(2-phenoxyethyl)-5,7-dihydrofuro[3,4-d]pyrimidin-2-yl)phenyl)urea] |  | 0.297 µM
21 | CCNC(=O)Nc1ccc(-c2nc(N3CCOC[C@@H]3C)c3c(n2)[C@](C)(CCOc2ccncc2)OC3)cc1 [Example 92 fu^1] |  | 0.238 µM
22 | CCC[C@@]1(C)OCc2c(N3C[C@H]4CC[C@@H](C3)O4)nc(-c3ccc(NC(=O)NCC)cc3)nc21 [Example 74 ej (R), 1-(4-((R)-4-((1R,5S)-8-oxa-3-azabicyclo[3.2.1]octan-3-yl)-7-methyl-7-propyl-5,7-dihydrofuro[3,4-d]pyrimidin-2-yl)phenyl)-3-ethylurea] |  | 0.019 µM
23 | C=CC[C@@]1(C)OCc2c(N3C[C@H]4CC[C@@H](C3)O4)nc(-c3ccc(NC(=O)NCC)cc3)nc21 [Example 74 eh (R), 1-(4-((R)-7-allyl-4-((1R,5S)-8-oxa-3-azabicyclo[3.2.1]octan-3-yl)-7-methyl-5,7-dihydrofuro[3,4-d]pyrimidin-2-yl)phenyl)-3-ethylurea] |  | 0.095 µM
24 | C=CC[C@@]1(C)OCc2c(N3CCOCC3)nc(-c3ccc(NC(=O)NCC)cc3)nc21 [Example 73 eb (R), (R)-1-(4-(7-allyl-7-methyl-4-morpholino-5,7-dihydrofuro[3,4-d]pyrimidin-2-yl)phenyl)-3-ethylurea] |  | 0.0961 µM
25 | CCNC(=O)Nc1ccc(-c2nc3c(c(N4C[C@H]5CC[C@@H](C4)O5)n2)COC3)cc1 [Example 99, 1-(4-(4-(8-oxa-3-azabicyclo[3.2.1]octan-3-yl)-5,7-dihydrofuro[3,4-d]pyrimidin-2-yl)phenyl)-3-ethylurea] |  | 0.154 µM
26 | C=CC[C@]1(C)OCc2c(N3C[C@H]4CC[C@@H](C3)O4)nc(-c3ccc(NC(=O)NCC)cc3)nc21 [Example 74 eh (S), 1-(4-((S)-7-allyl-4-((1R,5S)-8-oxa-3-azabicyclo[3.2.1]octan-3-yl)-7-methyl-5,7-dihydrofuro[3,4-d]pyrimidin-2-yl)phenyl)-3-ethylurea] |  | 0.153 µM
27 | CC[C@H]1COCCN1c1nc(-c2ccc(NC(=O)NC3COC3)cc2)nc2c1COCC2 [Example 6, (S)-1-(4-(4-(3-ethylmorpholino)-7,8-dihydro-5H-pyrano[4,3-d]pyrimidin-2-yl)phenyl)-3-(oxetan-3-yl)urea] |  | 0.18 µM
